Test results as given in patent US20240025862A1, “SUBSTITUTED N-PHENYLURACILS AND SALTS THEREOF, AND USE THEREOF AS HERBICIDAL ACTIVE SUBSTANCES” (Bayer Aktiengesellschaft, priority 2020, published 2024).

Legend:
Format in all cases: in vivo
[1] = system: Pharbitis purpurea (PHBPU); assay: Post-emergence herbicidal action, greenhouse pot test; conditions: Ipomoea purpurea, 504 h, read-out: Post-emergence action against PHBPU in %
How it was run: (§1)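 Greenhouse-grown weeds in sandy loam were sprayed post-emergence at the one-leaf stage, 2–3 weeks after sowing. Compounds were formulated as WP or EC in water with 0.5% additive at 600 l/ha, at rates of 20 g/ha or less. Visual rating after about 3 weeks used a scale from 0% (like untreated control) to 100% (plants dead).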

[2] = system: Veronica persica (VERPE); assay: as above; conditions: Veronica persica, 504 h, read-out: Post-emergence action against VERPE
How it was run: as §1

[3] = system: Avena fatua (AVEFA); assay: as above; conditions: Avena fatua, 504 h, 20 g/ha, rated visually after about 3 weeks vs untreated controls, 100% = plants have died, read-out: Post-emergence action at 20 g/ha against AVEFA in %
How it was run: as §1

[4] = system: Abutilon theophrasti (ABUTH); assay: as above; conditions: Abutilon theophrasti, 504 h, rated visually after about 3 weeks vs untreated controls, 100% = plants have died
How it was run: as §1

[5] = system: Viola tricolor (VIOTR); assay: as above; conditions: Viola tricolor, 504 h, read-out: Post-emergence action against VIOTR
How it was run: as §1

[6] = system: Amaranthus retroflexus (AMARE); assay: as above; conditions: Amaranthus retroflexus, 504 h, rated visually after about 3 weeks vs untreated controls, 100% = plants have died
How it was run: as §1

[7] = system: Polygonum convolvulus (POLCO); assay: as above; conditions: Fallopia convolvulus, 504 h, read-out: Post-emergence action against POLCO in %
How it was run: as §1

[8] = system: Lolium rigidum (LOLRI); assay: as above; conditions: Lolium rigidum, 504 h, dosage 20 g/ha, read-out: Post-emergence action against LOLRI in %
How it was run: as §1

[9] = system: Oryza sativa (ORYSA); assay: Post-emergence crop plant compatibility, greenhouse pot test (also comparative test C)
How it was run: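 Rice and other crops sprayed post-emergence at one-leaf stage (2–3 weeks after sowing) with WP or EC formulations plus 0.5% additive at 600 l/ha water. Visual rating about 3 weeks later versus untreated controls (100% = dead, 0% = like control); suffixes a–c denote different doses.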

compatibility with respect to the crop plant Oryza sativa (ORYSA) by comparison with literature compound a-17 / 3-14 ([9]; application rate of 1.25 g per hectare, table C5): distinct improvement in compatibility
ORYSA (efficacy in %) ([9]; comparative test C, application rate 1.25 g/ha, crop plant compatibility): 0%
Compound: COCCOC(=O)COc1ccccc1Oc1cc(-n2c(=O)cc(C(F)(F)F)n(C)c2=O)c(F)cc1Cl [I.7-1, 2-Methoxyethyl (2-{2-chloro-4-fluoro-5-[3-methyl-2,6-dioxo-4-(trifluoromethyl)-3,6-dihydropyrimidin-1(2H)-yl]phenoxy}phenoxy)acetate]
pest or weed control at 1.25 g/ha ([1]; dosage 1.25 g/ha): 100%
pest or weed control at 5 g/ha ([1]; dosage 5 g/ha): 100%
pest or weed control at 20 g/ha ([1]; dosage 20 g/ha): 100%
pest or weed control at 1.25 g/ha ([2]; 1.25 g/ha): 100%
pest or weed control at 5 g/ha ([2]; 5 g/ha): 100%
pest or weed control at 20 g/ha ([2]; 20 g/ha): 100%
pest or weed control at 20 g/ha [3]: 80%
pest or weed control at 5 g/ha ([4]; 5 g/ha, read-out: Post-emergence action at 5 g/ha against ABUTH in %): 100%
pest or weed control at 20 g/ha ([4]; 20 g/ha, read-out: Post-emergence action at 20 g/ha against ABUTH in %): 100%
pest or weed control at 1.25 g/ha ([5]; 1.25 g/ha): 100%
pest or weed control at 5 g/ha ([5]; 5 g/ha): 100%
pest or weed control at 20 g/ha ([5]; 20 g/ha): 100%
pest or weed control at 1.25 g/ha ([6]; 1.25 g/ha, read-out: Post-emergence action at 1.25 g/ha against AMARE in %): 100%
pest or weed control at 5 g/ha ([6]; 5 g/ha, read-out: Post-emergence action at 5 g/ha against AMARE in %): 100%
pest or weed control at 20 g/ha ([6]; 20 g/ha, read-out: Post-emergence action at 20 g/ha against AMARE in %): 100%
pest or weed control at 5 g/ha ([7]; dosage 5 g/ha): 80%
pest or weed control at 20 g/ha ([7]; dosage 20 g/ha): 100%
pest or weed control at 20 g/ha [8]: 80%
